Experimental data published in a melting point compilation (Tetko et al.; mined from patent text by program, amines drawn as free bases though some values may be those of a salt).

Structure (SMILES)	melting point [°C]
C=CCC1C(=O)c2cc(OC)ccc2C2CCC3(C)C(O)CCC3C12 (stereo not given)	122 to 123
CCCNC(=O)Nc1cc(C(C)(C)C)c2c(c1)C(C)(C)CO2	193 to 194
O=C(O)c1ccc(-c2nc(-c3cc(Cl)sc3Cl)cs2)cc1	266 to 267
CSc1ccc(NC(=O)CN2CCN(CCSc3nc4ccccc4o3)CC2)c(C)n1	116 to 117
FC(F)(F)c1ccc(-c2cc(Oc3ccc4cc[nH]c4c3)ncn2)cc1	206 to 209
CCNC(=S)NC1CC(C)(C)NC(C)(C)C1	134
C[C@@H](c1ccc(-c2ccn(CC(F)(F)F)c(=O)c2)cc1)N1CC[C@](CC(C)(C)O)(c2ccccc2)OC1=O	144 to 146
O=C(Nc1ccc2cc(CN3CCCC3)cnc2c1)c1ccc(-c2ccccc2)cc1F	166
COc1cc(CN/C=C2\C(=O)NC(=O)c3ccc(-c4ccc(Cl)cc4)cc32)cc(O)c1OC	240 to 241
CN1CCN(c2cc3c(cc2F)c(=O)c(C(=O)O)cn3C2CC2)CC1c1ccco1 (stereo not given)	122 to 124
NC(=O)C1CCc2cc(S(=O)(=O)Nc3ccc(-n4nnn(CCCC5CCCC5)c4=O)cc3)ccc2O1 (stereo not given)	202 to 205
O=S(=O)(Nc1ccc2c(OCc3csc(-c4ccc(C(F)(F)F)cn4)n3)cccc2c1)C(F)(F)F	197 to 198
Cc1cccc(N2CCN(Cc3ccc4c(c3)NCCN4)CC2)c1	135 to 136
O=C(c1ccccc1)N1CCN(CC(O)Cn2c3ccccc3c3ccccc32)CC1 (stereo not given)	153
CN(C)c1ccc(-c2noc([C@H]3CCCN(C(=O)c4ccc(F)cc4)C3)n2)cc1	147 to 153
C=CCNc1nc2c(c(N3CCN(C)CC3)n1)CCCN2CC=C	81
CCCCc1nc(CO)c(Sc2ccccc2)n1Cc1ccc(-c2ccccc2C(=O)O)cc1	220
O=C(O)Cc1coc2cc(OCc3ccccc3OCc3ccc(C(F)(F)F)cc3)ccc12	126 to 127
CC(C)NCC(O)COc1ccc2ncsc2c1 (stereo not given)	132 to 134

Structure (SMILES)	melting point [°C]
COc1cc(Nc2nc(-c3ccc(Cl)cc3)cc(C(F)(F)F)n2)ccc1-n1cnc(C)c1	202 to 204
CCOC(=O)c1nn(-c2ccc(Cl)cc2Cl)c(-c2ccc(Cl)cc2)c1C#N	112
CCOC(=O)c1ccc(CCCC2NC(=O)CS2)c(Cl)c1 (stereo not given)	81.5 to 82.5
O=C(Nc1cccc(OCc2cccnc2)c1)N1CCCC1	138 to 140
OC1CSC(Oc2cc(-c3ccncc3)cc(F)c2F)C(O)C1O (stereo not given)	151
N#CSc1cc(Cl)c(Cl)c2sc(NC(=O)Nc3ccc(Cl)cc3)nc12	238 to 239
c1csc(-c2ccc(-c3cn([C@H]4CN5CCC4CC5)nn3)cc2)c1	214
CC(=O)CC(=O)NC1CC(C)(C)NC(C)(C)C1	115
CCN(CC)C(C)CN1CCc2c(c(=O)oc3c(OC)c(OC)ccc23)C1 (stereo not given)	99 to 100
CCCN(CCC)C1CCc2c(ccc3c2C(=O)C(=O)N3)C1 (stereo not given)	83 to 86
CC(=O)Nc1ccc(-c2cc(-c3nc4ccccc4c(=O)n3-c3ccccc3)sc2N2CCOCC2)cc1	> 275
O=C(c1ccc(Cl)cc1)c1c(CN2CCN(c3ccccc3)CC2)csc1N1C(=O)c2ccccc2C1=O	220 to 222
CCc1[nH]n(C2CCCC2)c2nc(-c3cccc(OCC(=O)O)c3)nc(=O)c1-2	299 to 300
C=C(c1ccc(-n2cncn2)nc1)C1(c2ccc(F)cc2F)CO1 (stereo not given)	120 to 122
N=C(NO)c1ccc(-c2cccc(-c3nc4cc(C(=N)NO)ccc4[nH]3)c2O)cc1	322 to 325
Cc1cc(C(=O)O)cc(Cl)c1C1=NC(C)(C(C)C)C(=O)N1 (stereo not given)	245 to 248
N#Cc1cnc2sc(Br)cc2c1O	> 255
CCCCCCNC(=O)OC1CCN(C(=O)Oc2ccc(Oc3ccccc3)cc2)CC1	77 to 82
Cc1nc(-c2ccc(Br)c(C)c2)no1	78

Structure (SMILES)	melting point [°C]
CCOC(=O)C(N)Cc1c(OCC)noc1C(=O)O (racemic)	159 to 161
N[C@@H](Cc1ccc(C(F)(F)F)cc1)[C@H](O)c1ccncc1 (racemic)	97 to 98
CC(=O)c1ccc(OCc2ccccc2)c(OC/C=C/CN2CCC(c3noc4cc(F)ccc34)CC2)c1	124 to 125
FC(F)(F)c1nnc(Cl)c2cc3ccccn3c12	245 to 246
COc1ccc(N2CCN(c3ccc(OC)nc3-c3ccc(N(C)C)cc3)C(C)C2)cc1 (stereo not given)	140 to 148
O=C1O[C@H]2C[C@@H]1CC[C@@H]2I	130 to 131
CC(F)(F)c1cccc(Oc2ccc(C3CCCN4CCS(=O)(=O)N=C34)cc2)c1 (stereo not given)	117 to 118
Fc1ccc2nc(CBr)ccc2c1	90 to 92
CC1CCC(CNc2cc3oc(=O)[nH]c3cc2F)C(C)O1 (stereo not given)	123 to 139
COc1ccc(Cl)c2c1CCCC2=O	46 to 48
COC(=O)COc1ccc(C=Cc2nc(-c3ccccc3)c(-c3ccccc3)o2)cc1	122 to 123
CC(C)Sc1nc2c(cc1C#N)C(=O)CC(C)(C)C2	135 to 136
CC(C)[C@H]1CC[C@H](C(=O)N[C@H](Cc2ccc(OCCN(C)c3ccccn3)cc2)C(=O)O)CC1	154 to 155
O=C(c1cccc(Nc2nc(-c3ccccc3)nc3ccccc23)c1)N1CCN(c2ncc(Cc3ccccc3)cn2)CC1	214 to 215
CON=C1c2c(Cl)cc(Cl)c(-n3c(=O)cc(C(F)(F)F)n(C)c3=O)c2OC1(C)C	145 to 149
CCCC1CCC(C2CCC(C3CCCC(=O)C3)CC2)CC1 (stereo not given)	1.5
COCOc1ccc(C=CC(=O)c2ccc(OCc3ccccc3)cc2O)c(OCc2ccccc2)c1	147 to 148
O=[N+]([O-])c1cc(Cl)c(N=C2NCCCN2)c(Cl)c1	265
CC1(C)CCC(=O)Nc2ccc(Nc3ncc(Cl)c(Nc4ccccc4-c4nccs4)n3)cc21	224

Other lines, results leading:

melting point [°C]	Structure (SMILES)
194 to 195	COc1ccc(/C=C/C(=O)Nc2ccccc2C(=O)O)cc1
172	CCOC(=O)C(Cc1ccc(NC(C)=O)c([N+](=O)[O-])c1)(NC(C)=O)C(=O)OCC
45 to 46	Cc1ccc(Oc2ccc(C=O)cc2)cn1
175 to 177	CSc1nc(N)n(C(=O)c2ccc(Cl)cc2)n1
281 to 283	CS(=O)(=O)c1ccc(-c2[nH]c3ccc(Cl)cc3c2-c2ccccc2)cc1
102 to 104	CS(=O)(=O)c1ccccc1[N+](=O)[O-]
73	COc1ccc2c(c1)CC(CC(C)=O)C2=O (racemic)
186 to 188	Cc1ccc(C(O)=S)cn1
198 to 199	Cc1nc(NC(=O)c2ccccc2)sc1C(=O)NCc1ccccc1C(F)(F)F
126 to 129	CCOC(=O)Cc1c(C)[nH]c(C(=O)c2ccccc2)c1C
> 300	CC1(C)CC(=O)C2=C(C1)NC1=C(C(=O)CC(C)(C)C1)C2c1ccc2ccccc2c1
174	O=C(O)CCNC(=O)CNC(=O)c1csc(NC(=O)NCc2ccccc2)n1
165 to 166	COc1ccccc1Nc1nc(-c2ccccn2)cs1
127	COC(=O)c1cc(S(C)(=O)=O)c(S(F)(F)(F)(F)F)cc1C
158 to 159	Cc1[nH]c2ccccc2c1C1=C(Cl)C(=O)C=C(Cl)C1=O
135 to 137	O=C1C(=O)c2ccccc2C2=C1SCC1(CCN(CC3CCCCO3)CC1)O2 (stereo not given)
> 133	COC(=O)[C@@]12CO[C@@H](C(C)(C)C)N1C(=O)[C@](Cc1ccccc1)(C(=O)O)C2
190 to 191	Nc1nc(-c2ccccc2)nc2cccc(Oc3ccccc3)c12
62.4 to 72.2	CS(=O)(=O)c1ccc(-n2nc(CCCN3C(=O)c4ccccc4C3=O)cc2-c2ccccc2)cc1
188 to 202	NC(=O)Nc1cccc(CO)c1
124 to 126	O=C1CCNC(C(O)c2ccccc2)C1 (stereo not given)
118 to 120	CC1(CNC(=O)OCc2ccccc2)CCCCn2c1nc(-c1ccncn1)cc2=O (racemic)

melting point [°C]	Structure (SMILES)
63 to 70	ONCc1cccc(I)c1
101	CCCC(Cc1ccc(OCCN2CCOCC2)cc1)(C(=O)NO)S(=O)(=O)c1ccc(OC)cc1 (stereo not given)
135	CCCC(Br)c1nc2ccccc2n1Cc1ccc(C#N)cc1 (stereo not given)
165 to 167	COc1ccc(N(C(C)=O)C2=NN(c3ccc([N+](=O)[O-])cc3)C(=O)C2)cc1
115 to 117	CC=CC1Nc2ccccc2-c2c([N+](=O)[O-])cnn21 (stereo not given)
126 to 127	CCCCCCCCCCCCc1ccc(S(=O)(=O)Nc2nncs2)cc1
199 to 200	Cc1nnc2ncc(-c3ccccc3)cn12
200	CC1=C(n2ccccc2=O)c2cc([N+](=O)[O-])ccc2OC1(C)C
104	O=Cc1cc(OCc2ccccc2)c(OCc2ccccc2)cn1
185 to 187	O=[N+]([O-])c1cnc(NCC(O)CO)cn1 (stereo not given)
203	CCc1nc2cc(C(F)(F)F)c(Cl)cc2n1-c1ccc(CCOC(=O)NS(=O)(=O)c2cccc3c(N(C)C)cccc23)cc1
137	Nc1cc(C(=O)c2cc3ccccc3o2)ccc1Cl
155 to 157	CCOC(=O)c1c(OC)c2ccccc2c2nc3ccccc3nc12
135 to 138	Cc1ccc(S(=O)(=O)OCCC2COc3cc(Cl)c(Cl)cc3O2)cc1 (stereo not given)
186 to 188	Cc1cc(S(=O)(=O)c2ccc(O)cc2)ccc1C1CCN(C)C1 (stereo not given)
155 to 158	CC(=O)N1CCN(c2c(N[C@@H](Cc3ccccc3)C(=O)O)c(=O)c2=O)CC1
226 to 227	O=C(O)C1=C(c2ccccc2)c2cc(Cl)ccc2OC1CC(F)(F)F (stereo not given)
125 to 127	N#Cc1ccc(C(=O)N[C@@H](Cc2c[nH]c3ccccc23)C(=O)O)cc1
157 to 158	COC(CCCNc1ccc(-c2nc(=O)c3ccccc3s2)cn1)OC
158 to 160	Cc1ccccc1NNC(N)=S
108 to 109	CCC(=O)Nc1nc2cccc(C)c2c(=O)o1
